What was measured:
Experiment in all cases: Test B pre-/postemergence
Type in all cases: in vivo
Design in all cases: key: 0 is no effect; 10 is complete control
corn (Zea mays) = system: corn (Zea mays)
Summary of the method: (§1)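 Response scores run from 0, meaning no effect, to 10, meaning complete control, assigned by eye relative to controls twelve to sixteen days after spraying. Treatment was both preemergence on planted seed and postemergence on plants at the 1- to 4-leaf stage.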

soybean (Glycine max) = system: soybean (Glycine max)
Summary of the method: as §1

[1] = system: wheat (Triticum aestivum)
Summary of the method: as §1

[2] = system: velvetleaf (Abutilon theophrasti)
Summary of the method: as §1

[3] = system: momingglory (Ipomoea hederacea)
Summary of the method: as §1

wild oat (Avena fatua) = system: wild oat (Avena fatua)
Summary of the method: as §1

[4] = system: cocklebur (Xanthium strumarium)
Summary of the method: as §1

rape (Brassica napus) = system: rape (Brassica napus)
Summary of the method: as §1

[5] = system: pigweed (Amaranthus retroflexus)
Summary of the method: as §1

[6] = system: bedstraw (Galium aparine)
Summary of the method: as §1

[7] = system: crabgrass (Digitaria sanguinalis)
Summary of the method: as §1

[8] = system: purple nutsedge (Cyperus rotundus)
Summary of the method: as §1

[9] = system: giant foxtail (Setaria faberii)
Summary of the method: as §1

[10] = system: sugar beet (Beta vulgaris)
Summary of the method: as §1

SMILES: Cc1cnc(-c2ccc(C(F)(F)F)cc2)nc1C(Cl)c1cccc(C(F)(F)F)c1 (racemic) [Compound 21]
- Plant response rating, Corn (corn (Zea mays); Rate 62 g/ha, Postemergence): 3
- Corn plant response rating (corn (Zea mays); Rate 62 g/ha, Preemergence): 0
- Plant response rating, Corn (corn (Zea mays); Rate 125 g/ha, Postemergence): 3
- Corn plant response rating (corn (Zea mays); Rate 125 g/ha, Preemergence): 0
- Plant response rating, Corn (corn (Zea mays); Rate 250 g/ha, Postemergence): 4
- Plant response rating, Corn (corn (Zea mays); Rate 250 g/ha, Preemergence): 1
- Plant response rating, Soybean (soybean (Glycine max); Rate 62 g/ha, Postemergence): 6
- Soybean plant response rating (soybean (Glycine max); Rate 62 g/ha, Preemergence): 0
- Plant response rating, Soybean (soybean (Glycine max); Rate 125 g/ha, Postemergence): 6
- Soybean plant response rating (soybean (Glycine max); Rate 125 g/ha, Preemergence): 0
- Plant response rating, Soybean (soybean (Glycine max); Rate 250 g/ha, Postemergence): 6
- Plant response rating, Soybean (soybean (Glycine max); Rate 250 g/ha, Preemergence): 0
- Plant response rating, Wheat ([1]; Rate 62 g/ha, Postemergence): 4
- Wheat plant response rating ([1]; Rate 62 g/ha, Preemergence): 0
- Plant response rating, Wheat ([1]; Rate 125 g/ha, Postemergence): 4
- Wheat plant response rating ([1]; Rate 125 g/ha, Preemergence): 0
- Plant response rating, Wheat ([1]; Rate 250 g/ha, Postemergence): 5
- Plant response rating, Wheat ([1]; Rate 250 g/ha, Preemergence): 2
- Plant response rating, Velvetleaf ([2]; Rate 62 g/ha, Postemergence): 7
- Velvetleaf plant response rating ([2]; Rate 62 g/ha, Preemergence): 4
- Plant response rating, Velvetleaf ([2]; Rate 125 g/ha, Postemergence): 8
- Velvetleaf plant response rating ([2]; Rate 125 g/ha, Preemergence): 8
- Plant response rating, Velvetleaf ([2]; Rate 250 g/ha, Postemergence): 9
- Plant response rating, Velvetleaf ([2]; Rate 250 g/ha, Preemergence): 10
- Plant response rating, Morningglory ([3]; Rate 62 g/ha, Postemergence): 8
- Morningglory plant response rating ([3]; Rate 62 g/ha, Preemergence): 1
- Plant response rating, Morningglory ([3]; Rate 125 g/ha, Postemergence): 8
- Morningglory plant response rating ([3]; Rate 125 g/ha, Preemergence): 1
- Plant response rating, Morningglory ([3]; Rate 250 g/ha, Postemergence): 9
- Plant response rating, Morningglory ([3]; Rate 250 g/ha, Preemergence): 6
- Plant response rating, Wild oats (wild oat (Avena fatua); Rate 62 g/ha, Postemergence): 4
- Wild oats plant response rating (wild oat (Avena fatua); Rate 62 g/ha, Preemergence): 4
- Plant response rating, Wild oats (wild oat (Avena fatua); Rate 125 g/ha, Postemergence): 5
- Wild oats plant response rating (wild oat (Avena fatua); Rate 125 g/ha, Preemergence): 5
- Plant response rating, Wild oats (wild oat (Avena fatua); Rate 250 g/ha, Postemergence): 6
- Plant response rating, Wild oats (wild oat (Avena fatua); Rate 250 g/ha, Preemergence): 8
- Plant response rating, Cocklebur ([4]; Rate 62 g/ha, Postemergence): 7
- Cocklebur plant response rating ([4]; Rate 62 g/ha, Preemergence): 0
- Plant response rating, Cocklebur ([4]; Rate 125 g/ha, Postemergence): 8
- Cocklebur plant response rating ([4]; Rate 125 g/ha, Preemergence): 0
- Plant response rating, Cocklebur ([4]; Rate 250 g/ha, Postemergence): 8
- Plant response rating, Cocklebur ([4]; Rate 250 g/ha, Preemergence): 0
- Plant response rating, Rape (rape (Brassica napus); Rate 62 g/ha, Postemergence): 9
- Rape plant response rating (rape (Brassica napus); Rate 62 g/ha, Preemergence): 2
- Plant response rating, Rape (rape (Brassica napus); Rate 125 g/ha, Postemergence): 10
- Rape plant response rating (rape (Brassica napus); Rate 125 g/ha, Preemergence): 3
- Plant response rating, Rape (rape (Brassica napus); Rate 250 g/ha, Postemergence): 10
- Plant response rating, Rape (rape (Brassica napus); Rate 250 g/ha, Preemergence): 5
- Plant response rating, Redroot pigweed ([5]; Rate 62 g/ha, Postemergence): 8
- Redroot pigweed plant response rating ([5]; Rate 62 g/ha, Preemergence): 7
- Plant response rating, Redroot pigweed ([5]; Rate 125 g/ha, Postemergence): 9
- Redroot pigweed plant response rating ([5]; Rate 125 g/ha, Preemergence): 8
- Plant response rating, Redroot pigweed ([5]; Rate 250 g/ha, Postemergence): 10
- Plant response rating, Redroot pigweed ([5]; Rate 250 g/ha, Preemergence): 9
- Plant response rating, Bedstraw ([6]; Rate 62 g/ha, Postemergence): 5
- Bedstraw plant response rating ([6]; Rate 62 g/ha, Preemergence): 0
- Plant response rating, Bedstraw ([6]; Rate 125 g/ha, Postemergence): 9
- Bedstraw plant response rating ([6]; Rate 125 g/ha, Preemergence): 1
- Plant response rating, Bedstraw ([6]; Rate 250 g/ha, Postemergence): 9
- Plant response rating, Bedstraw ([6]; Rate 250 g/ha, Preemergence): 8
- Plant response rating, Crabgrass ([7]; Rate 62 g/ha, Postemergence): 3
- Crabgrass plant response rating ([7]; Rate 62 g/ha, Preemergence): 3
- Plant response rating, Crabgrass ([7]; Rate 125 g/ha, Postemergence): 6
- Crabgrass plant response rating ([7]; Rate 125 g/ha, Preemergence): 6
- Plant response rating, Crabgrass ([7]; Rate 250 g/ha, Postemergence): 8
- Plant response rating, Crabgrass ([7]; Rate 250 g/ha, Preemergence): 10
- Plant response rating, Nutsedge ([8]; Rate 62 g/ha, Postemergence): 2
- Nutsedge plant response rating ([8]; Rate 62 g/ha, Preemergence): 0
- Plant response rating, Nutsedge ([8]; Rate 125 g/ha, Postemergence): 2
- Nutsedge plant response rating ([8]; Rate 125 g/ha, Preemergence): 0
- Plant response rating, Nutsedge ([8]; Rate 250 g/ha, Postemergence): 3
- Plant response rating, Nutsedge ([8]; Rate 250 g/ha, Preemergence): 0
- Plant response rating, Giant foxtail ([9]; Rate 62 g/ha, Postemergence): 1
- Giant foxtail plant response rating ([9]; Rate 62 g/ha, Preemergence): 5
- Plant response rating, Giant foxtail ([9]; Rate 125 g/ha, Postemergence): 8
- Giant foxtail plant response rating ([9]; Rate 125 g/ha, Preemergence): 8
- Plant response rating, Giant foxtail ([9]; Rate 250 g/ha, Postemergence): 9
- Plant response rating, Giant foxtail ([9]; Rate 250 g/ha, Preemergence): 9
- Plant response rating, Sugarbeets ([10]; Rate 62 g/ha, Postemergence): 9
- Sugarbeets plant response rating ([10]; Rate 62 g/ha, Preemergence): 7
- Plant response rating, Sugarbeets ([10]; Rate 125 g/ha, Postemergence): 9
- Sugarbeets plant response rating ([10]; Rate 125 g/ha, Preemergence): 8
- Plant response rating, Sugarbeets ([10]; Rate 250 g/ha, Postemergence): 10
- Plant response rating, Sugarbeets ([10]; Rate 250 g/ha, Preemergence): 10
